Test results: publication PMC7382816 (BMC Pharmacology & Toxicology, 2020)
Where two headings read alike, the source gives them in different places.

Experiment: Single-dose pharmacokinetics in healthy volunteers under fasting and fed (high-fat breakfast) conditions, plasma concentrations by HPLC-MS, non-compartmental analysis
Format: in vivo, human
Parameters: Ke: unit not given here
From the text: The bioequivalence clinical trials were phase I, randomized, open-label, crossover, single-centre, with two periods separated by a 7-day washout stage. Subjects were randomised to one of the two treatment sequences, RT or TR where R was the reference formulation and T was the test formulation. Each of the clinical trial was crossover for evaluation of a test formulation compared to a reference formulation either under fed or fasting conditions. […] The treatments were allocated in a balanced manner on every inclusion day (blocks of 4 subjects). Our study adheres to CONSORT guidelines. […] Sample processing, genotyping for CYP2C19 and drug quantification were performed according to Román et al. […] Pharmacokinetic parameters were estimated from the plasma concentration–time data by non-compartmental analysis (WinNonlin Professional, version 2.0., Pharsight Corporation, USA) as reported by Román et al. […] WinNonLin Professional software version 2.0 was used for the statistical analysis. Pharmacokinetic parameters were log-transformed, and AUC and Cmax were adjusted for dose and weight. The values of pharmacokinetic parameters were expressed as mean ± standard deviation.

[1] = Fast, men, single oral dose, mean ± SD
[2] = both sexes, human, plasma, oral, only CYP2C19*1/*1 subjects, Fast, men and women, mean ± SD
[3] = both sexes, human, plasma, oral, only CYP2C19*1/*1 subjects, Fed, men and women, mean ± SD
[4] = both sexes, human, plasma, po, Fast, all subjects, single oral dose, mean ± SD
[5] = both sexes, human, plasma, po, Fed (high-fat breakfast), all subjects, single oral dose, mean ± SD
[6] = female, human, plasma, oral, only CYP2C19*1/*1 subjects, Fast, women, mean ± SD
[7] = female, human, plasma, oral, only CYP2C19*1/*1 subjects, Fed, women, mean ± SD
[8] = female, human, plasma, po, Fast, women, single oral dose, mean ± SD
[9] = female, human, plasma, po, Fed, women, single oral dose, mean ± SD
[10] = male, human, plasma, oral, only CYP2C19*1/*1 subjects, Fast, men, mean ± SD
[11] = male, human, plasma, oral, only CYP2C19*1/*1 subjects, Fed, men, mean ± SD
[12] = male, human, plasma, po, Fast, men, single oral dose, mean ± SD
[13] = male, human, plasma, po, Fed, men, single oral dose, mean ± SD
[14] = only CYP2C19*1/*1 subjects, Fast, men, mean ± SD
[15] = only CYP2C19*1/*1 subjects, Fast, women, mean ± SD
[16] = only CYP2C19*1/*1 subjects, Fed, men and women, mean ± SD
[17] = only CYP2C19*1/*1 subjects, Fed, men, mean ± SD

## COc1ccc2[nH]c([S+]([O-])Cc3ncc(C)c(OC)c3C)nc2c1 (stereo not drawn) [Omeprazole, omeprazole]
Fast, all subjects, single oral dose, mean ± SD
  Ke: 0.76 ± 0.29
[1]
  Cmax: 858.8 ± 432.6 ng/mL
  Ke: 0.70 ± 0.29
Fast, women, single oral dose, mean ± SD
  Ke: 0.82 ± 0.29
Fed (high-fat breakfast), all subjects, single oral dose, mean ± SD
  Ke: 0.67 ± 0.32
Fed, men, single oral dose, mean ± SD
  Ke: 0.69 ± 0.35
Fed, women, single oral dose, mean ± SD
  Ke: 0.65 ± 0.30
[2]
  AUC(0-inf): 1710 ± 1300 ng·h/mL
  CL/F: 9.5 mL/min/kg
  Vd/F: 0.69 ± 0.38 L/kg
  half-life: 1 ± 0.4 h
Both sexes, human, plasma, oral, only CYP2C19*1/*1 subjects, Fast, men and women, mean ± SD, read-out: Cmax
  Cmax: 860 ± 395 ng/mL
Both sexes, human, plasma, oral, only CYP2C19*1/*1 subjects, Fast, men and women, mean ± SD, read-out: Tmax
  Tmax: 1.8 ± 0.6 h
[3]
  AUC(0-inf): 1520 ± 1290 ng·h/mL
  CL/F: 10.3 mL/min/kg
  Vd/F: 0.77 ± 0.43 L/kg
  half-life: 1 ± 0.4 h
Both sexes, human, plasma, oral, only CYP2C19*1/*1 subjects, Fed, men and women, mean ± SD, read-out: Cmax
  Cmax: 604 ± 363 ng/mL
Both sexes, human, plasma, oral, only CYP2C19*1/*1 subjects, Fed, men and women, mean ± SD, read-out: Tmax
  Tmax: 4.9 h
Both sexes, human, plasma, oral, under fasting conditions, range among subjects, read-out: Tmax range
  Tmax: 1 to 3.5 h
Both sexes, human, plasma, oral, under fed conditions, range among subjects, read-out: Tmax range
  Tmax: 1 to 17 h
[4]
  AUC(0-inf): 2190 ± 2010 ng·h/mL
  CL/F: 8.83 mL/min/kg
  Vd/F: 0.64 ± 0.34 L/kg
Both sexes, human, plasma, po, Fast, all subjects, single oral dose, mean ± SD, read-out: Cmax
  Cmax: 931 ± 435 ng/mL
Both sexes, human, plasma, po, Fast, all subjects, single oral dose, mean ± SD, read-out: Tmax
  Tmax: 2 ± 0.7 h
[5]
  AUC(0-inf): 1930 ± 1880 ng·h/mL
  CL/F: 10.7 mL/min/kg
  Vd/F: 1.02 ± 1.07 L/kg
Both sexes, human, plasma, po, Fed (high-fat breakfast), all subjects, single oral dose, mean ± SD, read-out: Cmax
  Cmax: 683 ± 394 ng/mL
Both sexes, human, plasma, po, Fed (high-fat breakfast), all subjects, single oral dose, mean ± SD, read-out: Tmax
  Tmax: 4.9 ± 1.1 h
Fed vs fasting, all subjects
  AUC lower under fed conditions: 12%
  Cmax lower under fed conditions: 27%
  Delay of mean Tmax (absorption) by food: about 3 h
  half-life higher under fed conditions: 15%
Fed vs fasting, only subjects with CYP2C19*1/*1
  Delay of Tmax by food: 3 h
[6]
  AUC(0-inf): 1980 ± 1220 ng·h/mL
  CL/F: 8.83 mL/min/kg
  Vd/F: 0.69 ± 0.46 L/kg
  half-life: 1 ± 0.3 h
[7]
  AUC(0-inf): 1710 ± 1250 ng·h/mL
  CL/F: 9.5 mL/min/kg
  Vd/F: 0.84 ± 0.54 L/kg
female, human, plasma, oral, only CYP2C19*1/*1 subjects, Fed, women, mean ± SD, read-out: Cmax
  Cmax: 640 ± 275 ng/mL
female, human, plasma, oral, only CYP2C19*1/*1 subjects, Fed, women, mean ± SD, read-out: Tmax
  Tmax: 5.4 ± 0.4 h
[8]
  AUC(0-inf): 2020 ± 1500 ng·h/mL
  CL/F: 9.33 mL/min/kg
  Vd/F: 0.63 ± 0.31 L/kg
  half-life: 1 ± 0.4 h
female, human, plasma, po, Fast, women, single oral dose, mean ± SD, read-out: Cmax
  Cmax: 999 ± 438 ng/mL
female, human, plasma, po, Fast, women, single oral dose, mean ± SD, read-out: Tmax
  Tmax: 1.9 ± 0.6 h
[9]
  AUC(0-inf): 1720 ± 1400 ng·h/mL
  CL/F: 12.2 mL/min/kg
  Vd/F: 1.3 ± 1.38 L/kg
female, human, plasma, po, Fed, women, single oral dose, mean ± SD, read-out: Cmax
  Cmax: 640 ± 640 ng/mL
female, human, plasma, po, Fed, women, single oral dose, mean ± SD, read-out: Tmax
  Tmax: 5.4 ± 1 h
[10]
  AUC(0-inf): 1470 ± 1400 ng·h/mL
  CL/F: 10.3 mL/min/kg
  Vd/F: 0.68 ± 0.46 L/kg
male, human, plasma, oral, only CYP2C19*1/*1 subjects, Fast, men, mean ± SD, read-out: Cmax
  Cmax: 654 ± 306 ng/mL
[11]
  AUC(0-inf): 1410 ± 1160 ng·h/mL
  CL/F: 10.5 mL/min/kg
  Vd/F: 0.73 ± 0.38 L/kg
  half-life: 1 ± 0.4 h
male, human, plasma, oral, only CYP2C19*1/*1 subjects, Fed, men, mean ± SD, read-out: Tmax
  Tmax: 4.3 ± 1 h
[12]
  AUC(0-inf): 2380 ± 2480 ng·h/mL
  CL/F: 8.33 mL/min/kg
  Vd/F: 0.65 ± 0.38 L/kg
male, human, plasma, po, Fast, men, single oral dose, mean ± SD, read-out: Tmax
  Tmax: 2.1 ± 0.7 h
[13]
  AUC(0-inf): 2140 ± 2280 ng·h/mL
  CL/F: 9.5 mL/min/kg
  Vd/F: 0.75 ± 0.52 L/kg
male, human, plasma, po, Fed, men, single oral dose, mean ± SD, read-out: Cmax
  Cmax: 725 ± 448 ng/mL
male, human, plasma, po, Fed, men, single oral dose, mean ± SD, read-out: Tmax
  Tmax: 4.5 ± 0.9 h
Only CYP2C19*1/*1 subjects, Fast, men and women, mean ± SD
  Ke: 0.81 ± 0.23
[14]
  Ke: 0.82 ± 0.25
  Tmax: 2.0 ± 0.7 h
[15]
  Cmax: 1094.3 ± 366.6 ng/mL
  Ke: 0.79 ± 0.23
[16]
  Ke: 0.80 ± 0.36
  Tmax: 4.7 ± 1.0 h
[17]
  Cmax: 582.8 ± 419.1 ng/mL
  Ke: 0.84 ± 0.39
Only CYP2C19*1/*1 subjects, Fed, women, mean ± SD
  Ke: 0.72 ± 0.32
